Data as given in US20240239784A1, “INDOLE COMPOUNDS AND METHODS OF USE” (GENZYME CORPORATION, priority 2021, published 2024).

test system: NBD1; experiment: Aggregation analysis of NBD1 thermal stability by differential static light scattering (DSLS); format: binding, Human; conditions: compound at 100 μM; ΔTagg versus DMSO control
Method: Purified recombinant NBD1 was produced using previously described methods (A. Schmidt, J. L. Mendoza, P. J. Thomas (2011) Biochemical and Biophysical Approaches to Probe CFTR Structure (365-376) M. D. Amaral, K. Kunzelmann (eds.), Cysic Fibrosis, Methods in Molecular Biology 741, Springer Science+Business Media). The effect of test compounds on thermal stability of NBD1 was evaluated by differential static light scattering (DSLS) using the Harbinger Stargazer-384 instrument (Epiphyte Three, Toronto, Canada). Test compounds were dissolved and diluted to desired concentrations in 100% DMSO. The compounds or DMSO controls (100 nL) were stamped into wells of a […] low volume optical plate (Corning Inc., Corning, NY) using the Echo 555 acoustic liquid handler (Labcyte Inc., San Jose, CA).
NBD1 protein was diluted to 0.2 mg/ml in S200 buffer (50 mM Tris-HCl, 150 mM NaCl, 5 mM MgCl2, 2 mM ATP, 2 mM DTT, pH7.6) containing 1% glycerol. 10 uL of protein solution was aliquoted into the 384-well plate harboring the test compounds and 10 uL mineral oil was overlayed onto the protein solution, using the epMotion robotic liquid handler (Eppendorf North America, Hauppauge, NY). After placing into the Stargazer instrument, the plate was heated at 1° C. per minute to 70° C. Images were captured from 25° C. to 70° C. every 0.5° C. At the end of the experiment run, instrument software integrated image files and analyzed data automatically. A […] regression curve was generated for each well, representing the increase in light scattering over time. A temperature of aggregation (Tagg) was calculated based on the inflection point of the curve. To better compare data across experiments the average Tagg for DMSO control wells was calculated and subtracted from values for wells containing compounds to obtain a “ΔTagg” value. These ΔTagg values reflect stabilizing efficacy of the compounds.

Compound	DSLS NBD1/3D Human Stability delta-T (° C.) @ 100 (μM)
CC(c1ccccc1)c1c[nH]c(-c2cc(Oc3c(F)cc4[nH]ccc4c3CC3SC(=O)NC3=O)ccc2F)n1 (stereo not shown) [Example 2, 5-((6-Fluoro-5-(4-fluoro-3-(4-(1-phenylethyl)-1H-imidazol-2-yl)phenoxy)-1H-indol-4-yl)methyl)thiazolidine-2,4-dione]	B (4-8° C.)
O=C(O)c1c(Oc2cccc(-c3nc(C(O)c4ccccc4)c[nH]3)c2)ccc2[nH]ccc12 (stereo not shown) [Example 81, 5-(3-(4-(Hydroxy(phenyl)methyl)-1H-imidazol-2-yl)phenoxy)-1H-indole-4-carboxylic acid]	B (4-8° C.)
CC(C)NCc1c(Oc2cccc(-c3nnc(Cc4ccccc4)[nH]3)c2)ccc2[nH]ccc12 [Example 21, N-((5-(3-(5-Benzyl-4H-1,2,4-triazol-3-yl)phenoxy)-1H-indol-4-yl)methyl)propan-2-amine 2,2,2-trifluoroacetate]	B (4-8° C.)
Nc1ccc(-c2n[nH]c(Cc3ccccc3)n2)cc1Oc1ccc2[nH]ccc2c1 [Example 49, 2-((1H-Indol-5-yl)oxy)-4-(5-benzyl-1H-1,2,4-triazol-3-yl)aniline]	B (4-8° C.)
CN1C(=O)SC(Cc2c(Oc3ccc(F)c(-c4nc(C(C)(O)c5ccccc5)c[nH]4)c3)c(F)cc3[nH]ccc23)C1=O (stereo not shown) [Example 70, 5-((6-fluoro-5-(4-fluoro-3-(4-(1-hydroxy-1-phenylethyl)-1H-imidazol-2-yl)phenoxy)-1H-indol-4-yl)methyl)-3-methylthiazolidine-2,4-dione]	B (4-8° C.)
c1ccc(Cc2nnc(-c3cncc(Oc4ccc5[nH]ccc5c4)c3)[nH]2)cc1 [Example 29, 5-((5-(5-Benzyl-4H-1,2,4-triazol-3-yl)pyridin-3-yl)oxy)-1H-indole]	C (≤4° C.)
O=C(Cc1c(Oc2cccc(-c3nnc(Cc4ccccc4)[nH]3)c2)ccc2[nH]ccc12)NS(=O)(=O)C(F)(F)F [Example 60, 2-(5-(3-(5-Benzyl-4H-1,2,4-triazol-3-yl)phenoxy)-1H-indol-4-yl)-N-((trifluoromethyl)sulfonyl)acetamide]	A (T ≥8° C.)
CC(C)(c1ccccc1)c1cnc(-c2cc(Oc3c(F)cc4[nH]ccc4c3CC(=O)O)ccc2F)[nH]1 [Example 4, 2-(6-Fluoro-5-(4-fluoro-3-(5-(2-phenylpropan-2-yl)-1H-imidazol-2-yl)phenoxy)-1H-indol-4-yl)acetic acid]	A (T ≥8° C.)
OC(c1cccc(-c2nnc(Cc3ccccc3)[nH]2)c1)c1ccc2[nH]ccc2c1 (single isomer, unassigned) [Example 35B, (3-(5-Benzyl-4H-1,2,4-triazol-3-yl)phenyl)(1H-indol-5-yl)methanol]	C (≤4° C.)
NC(=O)CC(c1cccc(-c2nnc(Cc3ccccc3)[nH]2)c1)c1ccc2[nH]ccc2c1 (stereo not shown) [Example 38, 3-(3-(5-Benzyl-4H-1,2,4-triazol-3-yl)phenyl)-3-(1H-indol-5-yl)propanamide]	C (≤4° C.)
CC(O)(c1ccccc1)c1cnc(-c2cccc([S+]([O-])c3ccc4[nH]ccc4c3)c2)[nH]1 (stereo not shown) [Example 40, 1-(2-(3-((1H-Indol-5-yl)sulfinyl)phenyl)-1H-imidazol-5-yl)-1-phenylethan-1-ol]	C (≤4° C.)
CC(=O)NCc1c(Oc2cccc(-c3nnc(Cc4ccccc4)[nH]3)c2)ccc2[nH]ccc12 [Example 50, N-((5-(3-(5-Benzyl-4H-1,2,4-triazol-3-yl)phenoxy)-1H-indol-4-yl)methyl)acetamide]	B (4-8° C.)
CS(=O)(=O)NC(=O)CCc1c(Oc2cccc(-c3nnc(Cc4ccccc4)[nH]3)c2)ccc2[nH]ccc12 [Example 59, 3-(5-(3-(5-Benzyl-4H-1,2,4-triazol-3-yl)phenoxy)-1H-indol-4-yl)-N-(methylsulfonyl)propanamide]	B (4-8° C.)
CC(=O)NCc1c(Oc2cccc(-c3ncc(C(O)c4ccccc4)[nH]3)c2)ccc2[nH]ccc12 (stereo not shown) [Example 18, N-((5-(3-(5-(Hydroxy(phenyl)methyl)-1H-imidazol-2-yl)phenoxy)-1H-indol-4-yl)methyl)acetamide]	A (T ≥8° C.)
CC(O)(c1ccccc1)c1cnc(-c2cccc(Oc3ccc4[nH]ccc4c3S(C)(=O)=O)c2)[nH]1 (racemic) [Example 63, 1-(2-(3-((4-(methylsulfonyl)-1H-indol-5-yl)oxy)phenyl)-1H-imidazol-5-yl)-1-phenylethan-1-ol]	A (T ≥8° C.)
c1ccc(Cc2nnc(-c3cccc(Oc4ccc5[nH]cc6c5c4CNCC6)c3)[nH]2)cc1 [Example 46, 9-(3-(5-Benzyl-4H-1,2,4-triazol-3-yl)phenoxy)-2,3,4,6-tetrahydro-1H-azepino[5,4,3-cd]indole]	C (≤4° C.)
COCCNC(=O)c1c(Oc2cccc(-c3nc(C(O)c4ccccc4)c[nH]3)c2)ccc2[nH]ccc12 (stereo not shown) [Example 82, 5-(3-(4-(Hydroxy(phenyl)methyl)-1H-imidazol-2-yl)phenoxy)-N-(2-methoxyethyl)-1H-indole-4-carboxamide]	B (4-8° C.)
CC(O)(c1ccccc1)c1c[nH]c(-c2cc(Oc3c(F)cc4[nH]ccc4c3S(C)(=N)=O)ccc2F)n1 (stereo not shown) [Example 6, (6-fluoro-5-(4-fluoro-3-(4-(1-hydroxy-1-phenylethyl)-1H-imidazol-2-y1)phenoxy)-1H-indol-4-y1)(imino)(methyl)-16-sulfanone]	A (T ≥8° C.)
CC(O)c1c(Oc2cccc(-c3nc(C(C)(O)c4ccccc4)c[nH]3)c2)c(F)cc2[nH]ccc12 (stereo not shown) [Example 66, 1-(2-(3-((6-Fluoro-4-(1-hydroxyethyl)-1H-indol-5-yl)oxy)phenyl)-1H-imidazol-4-yl)-1-phenylethan-1-ol]	A (T ≥8° C.)
Cc1c(Oc2ccc(F)c(-c3nc(C(C)(CO)c4ccccc4)c[nH]3)c2)c(F)cc2[nH]ccc12 (stereo not shown) [Example 77, 2-(2-(2-Fluoro-5-((6-fluoro-4-methyl-1H-indol-5-yl)oxy)phenyl)-1H-imidazol-4-yl)-2-phenylpropan-1-ol]	B (4-8° C.)
c1ccc(Cc2coc(-c3cccc(Oc4ccc5[nH]ccc5c4)c3)n2)cc1 [Example 47, 2-(3-((1H-Indol-5-yl)oxy)phenyl)-4-benzyloxazole]	C (≤4° C.)
CC(C(=O)O)(c1ccccc1)c1c[nH]c(-c2cc(Oc3c(F)cc4[nH]ccc4c3F)ccc2F)n1 (stereo not shown) [Example 76, 2-(2-(5-((4,6-Difluoro-1H-indol-5-yl)oxy)-2-fluorophenyl)-1H-imidazol-4-yl)-2-phenylpropanoic acid]	B (4-8° C.)
Cc1c(Oc2ccc(F)c(-c3ncc(C(C)(O)c4ccccc4)[nH]3)c2)c(F)cc2[nH]cc(CC(=O)O)c12 (stereo not shown) [Example 74, 2-(6-Fluoro-5-(4-fluoro-3-(5-(1-hydroxy-1-phenylethyl)-1H-imidazol-2-yl)phenoxy)-4-methyl-1H-indol-3-yl)acetic acid]	B (4-8° C.)
Cc1c(Oc2ccc(F)c(-c3ncc(C(C)(CCC(=O)O)c4ccccc4)[nH]3)c2)c(F)cc2[nH]ccc12 (stereo not shown) [Example 13, 4-(2-(2-Fluoro-5-((6-fluoro-4-methyl-1H-indol-5-yl)oxy)phenyl)-1H-imidazol-5-yl)-4-phenylpentanoic acid]	B (4-8° C.)
CS(=O)(=O)NC(=O)Cc1c(Oc2cccc(-c3nnc(Cc4ccccc4)[nH]3)c2)ccc2[nH]ccc12 [Example 56, 2-(5-(3-(5-Benzyl-4H-1,2,4-triazol-3-yl)phenoxy)-1H-indol-4-yl)-N-(methylsulfonyl)acetamide]	A (T ≥8° C.)
CS(=O)(=O)c1c(Oc2cccc(-c3ncc(C(N)c4ccccc4)[nH]3)c2)c(F)cc2[nH]ccc12 (stereo not shown) [Example 15, (2-(3-((6-Fluoro-4-(methylsulfonyl)-1H-indol-5-yl)oxy)phenyl)-1H-imidazol-5-yl)(phenyl)methanamine]	A (T ≥8° C.)
NC(c1ccccc1)c1nnc(-c2cccc(Oc3ccc4[nH]ccc4n3)c2)[nH]1 (stereo not shown) [Example 17, (5-(3-((1H-Pyrrolo[3,2-b]pyridin-5-yl)oxy)phenyl)-4H-1,2,4-triazol-3-yl)(phenyl)methanamine]	B (4-8° C.)
O=C(O)c1c(Oc2cccc(-c3ncc(C(O)c4ccccc4)[nH]3)c2)ccc2[nH]ncc12 (stereo not shown) [Example 27, 5-(3-(5-(Hydroxy(phenyl)methyl)-1H-imidazol-2-yl)phenoxy)-1H-indazole-4-carboxylic acid]	C (≤4° C.)
